Literature values in PubChem BioAssay AID1259409 (Chemical Carcinogenesis Research Information System (CCRIS), 2018).

Tested on: rodent chemically induced tumor inhibition, incidence and multiplicity
Experiment: CCRIS tumor inhibitor studies
Conditions: Route [Inhibitor]: ORAL

O=[Se](O)O
tumour outcome (control, treated, inhibition, significance) (Carcinogen: DIETHYLNITROSAMINE, 55-18-5, Dose [Inhibitor]: 0, 10 MG/L IN DRINKING WATER FOR DURATION OF STUDY BEGINNING 4 D POST CARCINOGEN TREATMENT (STUDY DURATION: 6 MO), Species: RAT, Strain/Sex: BD6/FEMALE, Target Tissue: Type of Lesion: ESOPHAGUS: TUMOR, Dose [Carcinogen]: 80 MG/KG BW 1/WK FOR 9 WK, Promoter: NONE USED): 29%, 18%, 38%, not significant
tumour outcome (control, treated, inhibition, significance) (Carcinogen: DIETHYLNITROSAMINE, 55-18-5, Dose [Inhibitor]: 0, 10 MG/L IN DRINKING WATER FOR DURATION OF STUDY BEGINNING 7 D PRIOR TO CARCINOGEN TREATMENT (STUDY DURATION: 6 MO), Species: RAT, Strain/Sex: BD6/FEMALE, Target Tissue: Type of Lesion: ESOPHAGUS: TUMOR, Dose [Carcinogen]: 80 MG/KG BW 1/WK FOR 7 WK, Promoter: NONE USED): 25%, 14%, 44%, not significant
tumour outcome (control, treated, inhibition, significance) (Carcinogen: DIETHYLNITROSAMINE, 55-18-5, Dose [Inhibitor]: 0, 10 MG/L IN DRINKING WATER FOR DURATION OF STUDY BEGINNING 7 D PRIOR TO CARCINOGEN TREATMENT (STUDY DURATION: 6 MO), Species: RAT, Strain/Sex: BD6/FEMALE, Target Tissue: Type of Lesion: LIVER: TUMOR, Dose [Carcinogen]: 80 MG/KG BW 1/WK FOR 7 WK, Promoter: NONE USED): 64%, 31%, 52%, p<0.05
tumour outcome (control, treated, inhibition, significance) (Carcinogen: DIETHYLNITROSAMINE, 55-18-5, Dose [Inhibitor]: 0, 10 MG/L IN DRINKING WATER FOR DURATION OF STUDY BEGINNING 7 D PRIOR TO FIRST CARCINOGEN DOSE (STUDY DURATION: 6 MO), Species: RAT, Strain/Sex: BD6/FEMALE, Target Tissue: Type of Lesion: ESOPHAGUS: TUMOR, Dose [Carcinogen]: 80 MG/KG BW 1/WK FOR 8 WK, Promoter: NONE USED): 31%, 39%, -26%, not significant
tumour outcome (control, treated, inhibition, significance) (Carcinogen: DIETHYLNITROSAMINE, 55-18-5, Dose [Inhibitor]: 0, 10 MG/L IN DRINKING WATER FOR DURATION OF STUDY BEGINNING 7 D PRIOR TO FIRST CARCINOGEN DOSE (STUDY DURATION: 6 MO), Species: RAT, Strain/Sex: BD6/FEMALE, Target Tissue: Type of Lesion: ESOPHAGUS: TUMOR, Dose [Carcinogen]: 100 MG/L IN DRINKING WATER FOR 3.5 MO, Promoter: NONE USED): 37%, 25%, 32%, not significant
tumour outcome (control, treated, inhibition, significance) (Carcinogen: DIETHYLNITROSAMINE, 55-18-5, Dose [Inhibitor]: 0, 10 MG/L IN DRINKING WATER FOR DURATION OF STUDY BEGINNING 7 D PRIOR TO FIRST CARCINOGEN DOSE (STUDY DURATION: 6 MO), Species: RAT, Strain/Sex: BD6/FEMALE, Target Tissue: Type of Lesion: LIVER: TUMOR, Dose [Carcinogen]: 80 MG/KG BW 1/WK FOR 8 WK, Promoter: NONE USED): 94%, 69%, 27%, not significant
tumour outcome (control, treated, inhibition, significance) (Carcinogen: DIETHYLNITROSAMINE, 55-18-5, Dose [Inhibitor]: 0, 10 MG/L IN DRINKING WATER FOR DURATION OF STUDY BEGINNING 7 D PRIOR TO FIRST CARCINOGEN DOSE (STUDY DURATION: 6 MO), Species: RAT, Strain/Sex: BD6/FEMALE, Target Tissue: Type of Lesion: LIVER: TUMOR, Dose [Carcinogen]: 100 MG/L IN DRINKING WATER FOR 3.5 MO, Promoter: NONE USED): 95%, 94%, 1%, not significant
tumour outcome (control, treated, inhibition, significance) (Carcinogen: DIETHYNITROSAMINE, 55-18-5, Dose [Inhibitor]: 0, 1 MG/L IN DRINKING WATER FOR DURATION OF STUDY BEGINNING 7 D PRIOR TO FIRST CARCINOGEN DOSE (STUDY DURATION: 6 MO), Species: RAT, Strain/Sex: BD6/FEMALE, Target Tissue: Type of Lesion: LIVER: TUMOR, Dose [Carcinogen]: 80 MG/KG BW 1/WK FOR 8 WK, Promoter: NONE USED): 85%, 75%, 12%, not significant
tumour outcome (control, treated, inhibition, significance) (Carcinogen: ETHYLNITROSOUREA, 759-73-9, Dose [Inhibitor]: 0, 4 MG/L TAP DRINKING WATER FOR LIFE (STUDY DURATION: 310 D), Species: RAT, Strain/Sex: ALBINO/MALE,FEMALE, Target Tissue: Type of Lesion: KIDNEY: MESENCHYMAL TUMOR OR ADENOCARCINOMA, Dose [Carcinogen]: 75 MG/KG IN SALINE BY INTRAVENOUS INJECTION ONCE 21 D AFTER CONCEPTION): 33/89 (37%), 20/55 (36%), 3%, not calculated
tumour outcome (control, treated, inhibition, significance) (Carcinogen: ETHYLNITROSOUREA, 759-73-9, Dose [Inhibitor]: 0, 4 MG/L TAP DRINKING WATER FOR LIFE (STUDY DURATION: 310 D), Species: RAT, Strain/Sex: ALBINO/MALE,FEMALE, Target Tissue: Type of Lesion: SPINAL CORD: TUMOR, Dose [Carcinogen]: 75 MG/KG IN SALINE BY INTRAVENOUS INJECTION ONCE 21 D AFTER CONCEPTION): 55/89 (62%), 32/55 (58%), 6%, not calculated
tumour outcome (control, treated, inhibition, significance) (Carcinogen: ETHYLNITROSOUREA, 759-73-9, Dose [Inhibitor]: 0, 4 MG/L TAP DRINKING WATER FOR LIFE (STUDY DURATION: 310 D), Species: RAT, Strain/Sex: ALBINO/MALE/FEMALE, Target Tissue: Type of Lesion: BRAIN: GLIOMA OR ASTROCYTOMA, Dose [Carcinogen]: 75 MG/KG IN SALINE BY INTRAVENOUS INJECTION ONCE 21 D AFTER CONCEPTION): 54/89 (61%), 33/55 (60%), 2%, not calculated
tumour outcome (control, treated, inhibition, significance) (Carcinogen: ETHYLNITROSOUREA, 759-73-9, Dose [Inhibitor]: 0, 4 MG/L TAP DRINKING WATER FOR LIFE (STUDY DURATION: 319 D), Species: RAT, Strain/Sex: ALBINO/MALE,FEMALE, Target Tissue: Type of Lesion: NERVOUS SYSTEM: SCHWANNOMA, Dose [Carcinogen]: 75 MG/KG IN SALINE BY INTRAVENOUS INJECTION ONCE 21 D AFTER CONCEPTION): 37/89 (42%), 21/55 (38%), 10%, not calculated
tumour outcome (control, treated, inhibition, significance) (Carcinogen: METHYLAZOXYMETHANOL, 590-96-5, Dose [Inhibitor]: 4 PPM IN DRINKING WATER DAILY FOR 20 WK STARTING SIMULTANEOUSLY WITH CARCINOGEN TREATMENT AND CONTINUING THROUGH END OF, Species: RAT, Strain/Sex: SPRAGUE-DAWLEY/MALE, Target Tissue: Type of Lesion: COLON: ADENOCARCINOMA, Dose [Carcinogen]: 20 MG/KG BW 1/WK FOR 20 WK, Promoter: NONE USED): 14/14 (100%), 14/15 (93%), 7%, not significant
tumour outcome (control, treated, inhibition, significance) (Carcinogen: METHYLCHOLANTHRENE, 56-49-5, Dose [Inhibitor]: 0, 1 PPM IN DRINKING WATER FOR 13 WK BEGINNING 1 WK PRIOR TO CARCINOGEN TREATMENT (STUDY DURATION: 13 WK), Species: MOUSE, Strain/Sex: SWISS/FEMALE, Target Tissue: Type of Lesion: UTERUS: SQUAMOUS CELL TUMOR, Dose [Carcinogen]: 600 UG IN BEESWAX IMPREGNATED COTTON THREAD INSERTED INTO UTERINE CERVIX CANAL, Promoter: NONE USED): 18/25 (72%), 13/35 (37%), 49%, p<0.05
tumour outcome (control, treated, inhibition, significance) (Carcinogen: N'-NITROSOBIS(2-OXOPROPYL)AMINE, 60599-38-4, Dose [Inhibitor]: 0.1, 4 PPM (43.5 UG/D) IN DRINKING WATER BEGINNING 8 WK PRIOR TO FIRST CARCINOGEN DOSE AND CONTINUING FOR DURATION OF ST, Species: HAMSTER, Strain/Sex: SYRIAN/FEMALE, Target Tissue: Type of Lesion: PANCREAS: TUMOR, Dose [Carcinogen]: 10 MG/KG IN 0.9% SALINE 1/WK FOR 10 WK, Promoter: NONE USED): 88%, 88%, 0%
